From US8791131B2, “Imidazo[1,5]naphthyridine compounds, their pharmaceutical use and compositions” (Pfizer Inc., priority 2008, dated 2014)
Where two headings read alike, the source gives them in different places.

Assays:
[1] = system: PI3-K (phosphorylation of AKT at serine 473) in BT20 cells; assay: PI3-Kα cellular assay (phospho-AKT Ser473 ELISA in BT20 cells); details: Homo sapiens, BT-20, 1 h;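 also: lysates read by ELISA with TMB colour at 450 nm, cells given 0.5% DMSO vehicle serve as positive control and cell-free wells as negative control, duplicate wells per concentration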
PI3-Kα = PI3-Kα (Mus musculus (Mouse), UniProt P42337); assay: PI3-Kα biochemical assay (in vitro kinase assay, fluorescence polarization); details: for Ki: read-out: PI3Ka Ki; for PI3Ka Ki: Ki calculated from IC50, [ATP]=30 uM, Km=25 uM;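 as to all read-outs here: Insect-cell-expressed mouse p110/p85 complex converting PI(4,5)P2, product PI(3,4,5)P3 detected by displacing TAMRA-tagged PI(3,4,5)P3 from Grip1 PH domain, lower polarization means more product, room temperature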
Sequence of PI3-Kα (P42337 whole entry, the tested form may be a part): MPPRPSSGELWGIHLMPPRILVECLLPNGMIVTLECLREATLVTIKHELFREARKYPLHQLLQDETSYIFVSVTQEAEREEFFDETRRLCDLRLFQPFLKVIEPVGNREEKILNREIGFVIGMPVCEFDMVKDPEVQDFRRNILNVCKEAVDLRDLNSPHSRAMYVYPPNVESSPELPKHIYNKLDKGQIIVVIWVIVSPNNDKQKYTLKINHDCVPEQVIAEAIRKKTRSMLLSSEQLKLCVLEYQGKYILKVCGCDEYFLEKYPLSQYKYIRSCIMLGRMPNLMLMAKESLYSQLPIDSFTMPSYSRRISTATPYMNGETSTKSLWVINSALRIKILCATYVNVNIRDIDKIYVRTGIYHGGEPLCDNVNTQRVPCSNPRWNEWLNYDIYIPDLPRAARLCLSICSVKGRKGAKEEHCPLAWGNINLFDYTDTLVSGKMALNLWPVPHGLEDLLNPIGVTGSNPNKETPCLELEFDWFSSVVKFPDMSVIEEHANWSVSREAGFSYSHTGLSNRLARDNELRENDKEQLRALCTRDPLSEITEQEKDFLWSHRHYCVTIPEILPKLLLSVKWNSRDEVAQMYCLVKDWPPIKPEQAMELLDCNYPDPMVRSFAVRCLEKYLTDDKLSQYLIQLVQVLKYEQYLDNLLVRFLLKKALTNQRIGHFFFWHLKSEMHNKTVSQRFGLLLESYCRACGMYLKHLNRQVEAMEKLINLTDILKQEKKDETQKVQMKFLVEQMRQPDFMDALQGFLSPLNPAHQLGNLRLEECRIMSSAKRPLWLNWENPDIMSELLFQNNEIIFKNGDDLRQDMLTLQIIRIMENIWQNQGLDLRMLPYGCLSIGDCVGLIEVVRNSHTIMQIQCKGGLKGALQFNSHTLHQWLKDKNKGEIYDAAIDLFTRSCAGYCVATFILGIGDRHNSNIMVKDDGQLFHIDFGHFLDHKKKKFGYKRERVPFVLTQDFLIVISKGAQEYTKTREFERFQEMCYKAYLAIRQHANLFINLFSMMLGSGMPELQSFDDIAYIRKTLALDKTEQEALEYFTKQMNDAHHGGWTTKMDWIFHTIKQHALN
Sequence of PI3-Kα (P26450 whole entry partner, the tested form may be a part): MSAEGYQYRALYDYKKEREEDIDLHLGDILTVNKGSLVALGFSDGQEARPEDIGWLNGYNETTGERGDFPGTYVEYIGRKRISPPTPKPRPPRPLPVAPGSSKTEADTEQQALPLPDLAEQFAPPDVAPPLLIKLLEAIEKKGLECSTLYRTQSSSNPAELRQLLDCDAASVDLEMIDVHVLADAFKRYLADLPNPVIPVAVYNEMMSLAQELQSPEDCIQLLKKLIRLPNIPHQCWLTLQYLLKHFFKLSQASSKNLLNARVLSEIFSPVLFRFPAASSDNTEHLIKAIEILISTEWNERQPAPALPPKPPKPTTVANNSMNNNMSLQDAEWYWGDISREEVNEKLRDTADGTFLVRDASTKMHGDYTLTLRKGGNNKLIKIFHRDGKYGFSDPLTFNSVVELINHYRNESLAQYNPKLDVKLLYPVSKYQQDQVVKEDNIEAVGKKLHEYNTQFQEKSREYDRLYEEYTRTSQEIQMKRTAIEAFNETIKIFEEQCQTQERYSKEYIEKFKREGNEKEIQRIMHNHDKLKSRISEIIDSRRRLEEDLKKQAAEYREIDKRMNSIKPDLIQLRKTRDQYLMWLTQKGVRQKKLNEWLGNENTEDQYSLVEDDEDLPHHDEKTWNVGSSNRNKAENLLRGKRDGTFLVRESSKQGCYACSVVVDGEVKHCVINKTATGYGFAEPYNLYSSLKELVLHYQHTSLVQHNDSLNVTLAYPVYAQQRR

mTOR [2] = target: T1, mTOR (Homo sapiens (Human), UniProt P42345); assay: biochemical
T1 sequence (P42345 2156-2469): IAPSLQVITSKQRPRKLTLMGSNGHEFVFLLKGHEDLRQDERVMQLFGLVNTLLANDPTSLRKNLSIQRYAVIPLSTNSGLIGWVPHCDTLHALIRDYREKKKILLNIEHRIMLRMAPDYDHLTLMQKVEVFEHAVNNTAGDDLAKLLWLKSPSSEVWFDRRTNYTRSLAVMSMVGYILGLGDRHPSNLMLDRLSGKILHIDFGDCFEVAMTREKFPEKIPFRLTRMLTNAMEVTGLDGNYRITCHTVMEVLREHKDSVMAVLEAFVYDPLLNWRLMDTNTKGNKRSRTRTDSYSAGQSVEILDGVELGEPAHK

mTOR [3] = target: T1, mTOR
[4] = read-out: S473 pAKT 0.5% FBS IC50 (μM)
[5] = read-out: S473 pAKT 10% FBS IC50 (μM)

SMILES: CC(C)(C#N)c1ccc(-n2c(=O)[nH]c3cnc4ccc(-c5cnc6ccccc6c5)nc4c32)cc1 [Compound 101, 2-methyl-2-[4-(2-oxo-8-quinolin-3-yl-2,3-dihydro-1H-imidazo[4,5-c]-1,5-naphthyridin-1-yl)phenyl]propanenitrile]
- IC50 [1, 4]: 0.00647 µM
- Ki (PI3-Kα): 4.4 nM
- Ki (mTOR [2]): 3.63 nM

SMILES: Cn1c(=O)n(-c2ccc(C(C)(C)C#N)cc2)c2c3nc(-c4cnc5ccccc5c4)ccc3ncc21 [Compound 102, 2-methyl-2-[4-(3-methyl-2-oxo-8-quinolin-3-yl-2,3-dihydro-1H-imidazo[4,5-c]-1,5-naphthyridin-1-yl)phenyl]propanenitrile]
- IC50 [1, 4]: 0.00354 µM
- Ki (PI3-Kα): 0.76 nM
- Ki (mTOR [2]): 3.01 nM

SMILES: O=C(OCc1ccccc1)N1CCC(n2c(=O)[nH]c3cnc4ccc(-c5cnc6ccccc6c5)nc4c32)CC1 [Compound 115, benzyl4-(2-oxo-8-quinolin-3-yl-2,3-dihydro-1H-imidazo[4,5-c][1,5]naphthyridin-1-yl)piperidine-1-carboxylate]
- IC50 [1, 4]: 0.0322 µM
- Ki (PI3-Kα): 7.77 nM
- Ki (mTOR [2]): 21.5 nM

SMILES: Cn1c(=O)n(C2CCN(C(=O)OCc3ccccc3)CC2)c2c3nc(-c4cnc5ccccc5c4)ccc3ncc21 [Compound 116, benzyl4-(3-methyl-2-oxo-8-quinolin-3-yl-2,3-dihydro-1H-imidazo[4,5-c][1,5]naphthyridin-1-yl)piperidine-1-carboxylate]
- IC50 [1, 4]: 0.0134 µM
- Ki (PI3-Kα): 2.91 nM
- Ki (mTOR [2]): 6.53 nM

SMILES: Cn1c(=O)n(C2CCNCC2)c2c3nc(-c4cnc5ccccc5c4)ccc3ncc21 [Compound 118, 3-methyl-1-piperidin-4-yl-8-quinolin-3-yl-1,3-dihydro-2H-imidazo[4,5-c][1,5]naphthyridin-2-one]
- Ki (PI3-Kα): 2.08 nM
- Ki (mTOR [2]): 13.2 nM

SMILES: CC(=O)N1CCC(n2c(=O)n(C)c3cnc4ccc(-c5cnc6ccccc6c5)nc4c32)CC1 [Compound 120, 1-(1-acetylpiperidin-4-yl)-3-methyl-8-quinolin-3-yl-1,3-dihydro-2H-imidazo[4,5-c][1,5]naphthyridin-2-one]
- IC50 [1, 4]: 0.00459 µM
- Ki (PI3-Kα): 0.98 nM
- Ki (mTOR [2]): 5.41 nM

SMILES: Cn1c(=O)n([C@H]2CC[C@H](O)CC2)c2c3nc(-c4cnn(CCO)c4)ccc3ncc21 [Compound 164, 1-(trans-4-hydroxycyclohexyl)-8-[1-(2-hydroxyethyl)-1H-pyrazol-4-yl]-3-methyl-1,3-dihydro-2H-imidazo[4,5-c][1,5]naphthyridin-2-one]
- IC50 [1, 5]: 0.448 µM
- Ki (PI3-Kα): 16.2 nM
- Ki (mTOR [2]): 14 nM

SMILES: Cc1ccc(-c2ccc3ncc4c(c3n2)n(C2CCN(C(N)=O)CC2)c(=O)n4C)cn1 [Compound 167, 4-[3-methyl-8-(6-methylpyridin-3-yl)-2-oxo-2,3-dihydro-1H-imidazo[4,5-c][1,5]naphthyridin-1-yl]piperidine-1-carboxamide]
- IC50 [1, 5]: 0.112 µM
- Ki (PI3-Kα): 1.93 nM
- Ki (mTOR [2]): 1.28 nM

SMILES: CN(C)c1ccc(-c2ccc3ncc4c(c3n2)n([C@H]2CC[C@H](O)CC2)c(=O)n4C)cn1 [Compound 175, 8-[6-(dimethylamino)pyridin-3-yl]-1-(trans-4-hydroxycyclohexyl)-3-methyl-1,3-dihydro-2H-imidazo[4,5-c][1,5]naphthyridin-2-one]
- IC50 [1, 5]: 0.00526 µM
- Ki (PI3-Kα): 0.666 nM
- Ki (mTOR [2]): 1.8 nM

SMILES: Cc1ccc(-c2ccc3ncc4c(c3n2)n(C2CCNCC2)c(=O)n4C)cn1 [Compound 177, 3-methyl-8-(6-methyl-pyridin-3-yl)-1-piperidin-4-yl-1,3-dihydro-1,3,5,9-tetraaza-cyclopenta[a]naphthalen-2-one]
- IC50 [1, 5]: 0.101 µM
- Ki (PI3-Kα): 2.45 nM
- Ki (mTOR [2]): 7.21 nM

SMILES: CNC(=O)N1CCC(n2c(=O)n(C)c3cnc4ccc(-c5ccc(C)nc5)nc4c32)CC1 [Compound 181, N-methyl-4-[3-methyl-8-(6-methylpyridin-3-yl)-2-oxo-2,3-dihydro-1H-imidazo[4,5-c][1,5]naphthyridin-1-yl]piperidine-1-carboxamide]
- IC50 [1, 5]: 0.0594 µM
- Ki (PI3-Kα): 3.27 nM
- Ki (mTOR [2]): 1.06 nM

SMILES: CNC(=O)N1CCC(n2c(=O)n(C)c3cnc4ccc(-c5cnc(OC)nc5)nc4c32)CC1 [Compound 186, 4-[8-(2-methoxypyrimidin-5-yl)-3-methyl-2-oxo-2,3-dihydro-1H-imidazo[4,5-c][1,5]naphthyridin-1-yl]-N-methylpiperidine-1-carboxamide]
- IC50 [1, 5]: 0.0681 µM
- Ki (PI3-Kα): 2.49 nM
- Ki (mTOR [2]): 3.06 nM

SMILES: COc1ncc(-c2ccc3ncc4c(c3n2)n(C2CCN(C(=O)CO)CC2)c(=O)n4C)cn1 [Compound 189, 1-(1-glycoloylpiperidin-4-yl)-8-(2-methoxypyrimidin-5-yl)-3-methyl-1,3-dihydro-2H-imidazo[4,5-c][1,5]naphthyridin-2-one]
- IC50 [1, 5]: 0.0272 µM
- Ki (PI3-Kα): 1.78 nM
- Ki (mTOR [2]): 1.95 nM

SMILES: COc1ncc(-c2ccc3ncc4c(c3n2)n(C2CCN(CC(N)=O)CC2)c(=O)n4C)cn1 [Compound 190, 2-{4-[8-(2-methoxypyrimidin-5-yl)-3-methyl-2-oxo-2,3-dihydro-1H-imidazo[4,5-c][1,5]naphthyridin-1-yl]piperidin-1-yl}acetamide]
- IC50 [1, 5]: 0.0903 µM
- Ki (PI3-Kα): 4.96 nM
- Ki (mTOR [2]): 9.76 nM

SMILES: CN[C@H]1CC[C@H](n2c(=O)n(C)c3cnc4ccc(-c5cnc6ccccc6c5)nc4c32)CC1 [Compound 193, 3-methyl-1-[trans-4-(methylamino)cyclohexyl]-8-quinolin-3-yl-1,3-dihydro-2H-imidazo[4,5-c][1,5]naphthyridin-2-one]
- IC50 [1, 4]: 0.0404 µM
- Ki (PI3-Kα): 1.61 nM
- Ki (mTOR [2]): 13.1 nM

SMILES: Cn1c(=O)n([C@H]2CC[C@H](N)CC2)c2c3nc(-c4cnc5ccccc5c4)ccc3ncc21 [Compound 194, 1-(trans-4-aminocyclohexyl)-3-methyl-8-quinolin-3-yl-1,3-dihydro-2H-imidazo[4,5-c][1,5]naphthyridin-2-one]
- IC50 [1, 4]: 0.0464 µM
- Ki (PI3-Kα): 2.3 nM
- Ki (mTOR [2]): 7.91 nM

SMILES: CN(C)C(=O)CN1CCC(n2c(=O)n(C)c3cnc4ccc(-c5cnn(C)c5)nc4c32)CC1 [Compound 212, N,N-dimethyl-2-{4-[3-methyl-8-(1-methyl-1H-pyrazol-4-yl)-2-oxo-2,3-dihydro-1H-imidazo[4,5-c][1,5]naphthyridin-1-yl]piperidin-1-yl}acetamide]
- IC50 [1, 5]: 0.248 µM
- Ki (PI3-Kα): 14.7 nM
- Ki (mTOR [2]): 27.9 nM

SMILES: CC(=O)N1CCC(n2c(=O)n(C)c3cnc4ccc(-c5cccc6ncccc56)nc4c32)CC1 [Compound 249, 1-(1-acetylpiperidin-4-yl)-3-methyl-8-quinolin-5-yl-1,3-dihydro-2H-imidazo[4,5-c][1,5]naphthyridin-2-one]
- IC50 [1, 5]: 0.194 µM
- Ki (PI3-Kα): 4.51 nM
- Ki (mTOR [2]): 442 nM

SMILES: Cn1c(=O)n([C@H]2CC[C@H](O)CC2)c2c3nc(-c4ccc5[nH]ncc5c4)ccc3ncc21 [Compound 267, 1-(trans-4-hydroxycyclohexyl)-8-(1H-indazol-5-yl)-3-methyl-1,3-dihydro-2H-imidazo[4,5-c][1,5]naphthyridin-2-one]
- IC50 [1, 5]: 0.0205 µM
- Ki (mTOR [3]): 0.359 nM
- PI3Ka Ki (PI3-Kα): 0.145 nM

SMILES: COCCn1c(=O)n(C)c2cnc3ccc(-c4ccc(OC)nc4)nc3c21 [Compound 270, 1-(2-methoxyethyl)-8-(6-methoxypyridin-3-yl)-3-methyl-1,3-dihydro-2H-imidazo[4,5-c][1,5]naphthyridin-2-one]
- IC50 [1, 5]: 0.207 µM
- Ki (mTOR [3]): 7.13 nM
- PI3Ka Ki (PI3-Kα): 13.5 nM

SMILES: COc1ccc(-c2ccc3ncc4c(c3n2)n(C2CCN(C(C)=O)CC2)c(=O)n4C)cc1 [Compound 274, 1-(1-acetylpiperidin-4-yl)-8-(4-methoxyphenyl)-3-methyl-1,3-dihydro-2H-imidazo[4,5-c][1,5]naphthyridin-2-one]
- IC50 [1, 5]: 0.0113 µM
- Ki (mTOR [3]): 14.6 nM
- PI3Ka Ki (PI3-Kα): 7.71 nM

SMILES: COc1cccc(-c2ccc3ncc4c(c3n2)n(C2CCN(C(=O)[C@H](C)O)CC2)c(=O)n4C)c1 [Compound 275, 1-{1-[(2S)-2-hydroxypropanoyl]piperidin-4-yl}-8-(3-methoxyphenyl)-3-methyl-1,3-dihydro-2H-imidazo[4,5-c][1,5]naphthyridin-2-one]
- IC50 [1, 5]: 0.0344 µM
- Ki (mTOR [3]): 8.51 nM
- PI3Ka Ki (PI3-Kα): 2.01 nM

SMILES: COc1cccc(-c2ccc3ncc4c(c3n2)n(C2CCN(C(=O)CO)CC2)c(=O)n4C)c1 [Compound 276, 1-(1-glycoloylpiperidin-4-yl)-8-(3-methoxyphenyl)-3-methyl-1,3-dihydro-2H-imidazo[4,5-c][1,5]naphthyridin-2-one]
- IC50 [1, 5]: 0.0304 µM
- Ki (mTOR [3]): 10.2 nM
- PI3Ka Ki (PI3-Kα): 2.22 nM

SMILES: COc1cccc(-c2ccc3ncc4c(c3n2)n(C2CCN(C(C)=O)CC2)c(=O)n4C)c1 [Compound 277, 1-(1-acetylpiperidin-4-yl)-8-(3-methoxyphenyl)-3-methyl-1,3-dihydro-2H-imidazo[4,5-c][1,5]naphthyridin-2-one]
- IC50 [1, 5]: 0.0577 µM
- Ki (mTOR [3]): 10.3 nM
- PI3Ka Ki (PI3-Kα): 3.04 nM
